Measurements published in US10456407B2, “Combination therapy for treating cancer” (Epizyme, Inc., priority 2015, dated 2019).

Assays:
Assay type in all cases: cell-based
[1] = system: SU-DHL4 cells; test: RT2 Glucocorticoid signaling PCR array, SU-DHL4 (SUDHL4) cell line (Table 4f); settings: SUDHL4, 4 days, vs DMSO
Excerpt: Expression levels of (A). Sestrin; (B). TNF and (C) GILZ normalized to DMSO controls for each cell line with the indicated single agent or combination.

[2] = system: SMARCB1 protein levels; test: SMARCB1 (INI1) western blot in lymphoma cells; settings: single agent treatment
Excerpt: Glucocorticoid bound GR molecules move to the nucleus and can act as either transcriptional activator or repressor, depending on the cellular environment. […] Accessibility to GR binding sites can further be enhanced by ATP-dependent chromatin remodeling, and the SWI/SNF complex plays a key role in this activity. Not wishing to be bound by a particular theory or a specific mechanism of action, it is conceivable that aberrant chromatin repression, induced by EZH2 mediated hypertrimethylation of H3K27, can block some of the otherwise accessible GR binding sites, interfering with normal GR mediated gene induction or repression.

[3] = system: RL cells; test: RT2 Glucocorticoid signaling PCR array, RL (Table 4e, printed RI) cell line; settings: 4 days, Cpd44 1 uM, Pred 10-fold below 4-day IC50, vs DMSO, B2M-normalized
[4] = system: SU-DHL4 cells; test: RT2 Glucocorticoid signaling PCR array, SU-DHL4 (SUDHL4) cell line (Table 4f); settings: SUDHL4, 4 days, vs DMSO; remark: listed apart in the source

`CCN(c1cc(-c2ccc(CN3CCOCC3)cc2)cc(C(=O)NCc2c(C)cc(C)[nH]c2=O)c1C)C1CCOCC1` [Compound 44] was tested, and the “ΔΔCT, BCL6” value [1] was −1.019, the “ΔΔCT, CEBPB” value [1] was 0.776 and the “ΔΔCT, DDIT4” value [1] was −1.317. For the same compound, the “ΔΔCT, DUSP1” value [1] was −0.449, the “ΔΔCT, NFKBIA” value [1] was −0.388 and the “ΔΔCT, PDP1” value [1] was −0.911. The “ΔΔCT, POU2F2” value [1] was −0.539, the “ΔΔCT, RASA3” value [1] was −0.731 and the “ΔΔCT, SPHK1” value [1] was −1.066. The “ΔΔCT, STAT5A” value [1] was −0.587, the “ΔΔCT, TNF” value [1] was −2.458 and the “ΔΔCT, VDR” value [1] was −2.155. The “ΔΔCT, VLDLR” value [1] was 0.438, the “ΔΔCT, ZNF281” value [1] was −0.612 and the SMARCB1 protein levels [2] was “no effect”. For the same compound, the ΔΔCT ([3]; ADARB1 mRNA) was −1.672, the ΔΔCT ([3]; AFF1 mRNA) was −2.005 and the ΔΔCT ([3]; AK2 mRNA) was 0.268. The ΔΔCT ([3]; ANGPTL4 mRNA) was −0.935, the ΔΔCT ([3]; ANXA4 mRNA) was −0.562 and the ΔΔCT ([3]; ARID68 mRNA) was −1.220. It also gave a ΔΔCT ([3]; ATF4 mRNA) of 0.003, a ΔΔCT ([3]; CEBPB mRNA) of −0.004 and a ΔΔCT ([3]; COL4A2 mRNA) of −0.773. For the same compound, the ΔΔCT ([3]; CREB1 mRNA) was 0.205, the ΔΔCT ([3]; CREB3L4 mRNA) was −0.760 and the ΔΔCT ([3]; CREB3 mRNA) was −0.189. It also gave a ΔΔCT ([3]; CYB561 mRNA) of −1.477, a ΔΔCT ([3]; DDIT4 mRNA) of 0.461 and a ΔΔCT ([3]; DUSP1 mRNA) of −0.321. The ΔΔCT ([3]; EDN1 mRNA) was −1.208, the ΔΔCT ([3]; EHD3 mRNA) was −0.962 and the ΔΔCT ([3]; FK8PS mRNA) was 0.388. The ΔΔCT ([3]; GDPD1 mRNA) was −0.772, the ΔΔCT ([3]; GLUL mRNA) was −2.614 and the ΔΔCT ([3]; GOT1 mRNA) was 0.518. The ΔΔCT ([3]; H6PD mRNA) was −0.673, the ΔΔCT ([3]; HNRPLL mRNA) was 0.309 and the ΔΔCT ([3]; IL1RN mRNA) was −1.881. For the same compound, the ΔΔCT ([3]; IL6R mRNA) was −0.515, the ΔΔCT ([3]; IL10 mRNA) was −1.432 and the ΔΔCT ([3]; KLF13 mRNA) was −0.566. It also gave a ΔΔCT ([3]; LOX mRNA) of −0.580, a ΔΔCT ([3]; MERTK mRNA) of −4.419 and a ΔΔCT ([3]; MT2A mRNA) of 0.577. For the same compound, the ΔΔCT ([3]; NFKBIA mRNA) was 0.854, the ΔΔCT ([3]; NR3C1 mRNA) was 0.067 and the ΔΔCT ([3]; PDCD7 mRNA) was 0.006. The ΔΔCT ([3]; PDP1 mRNA) was −0.989, the ΔΔCT ([3]; PER1 mRNA) was 0.384 and the ΔΔCT ([3]; PER2 mRNA) was −0.361. For the same compound, the ΔΔCT ([3]; PIK3R1 mRNA) was 0.373, the ΔΔCT ([3]; PLEKHF1 mRNA) was 0.050 and the ΔΔCT ([3]; POU2F1 mRNA) was −0.027. For the same compound, the ΔΔCT ([3]; POU2F2 mRNA) was −0.584, the ΔΔCT ([3]; RA5A3 mRNA) was −0.009 and the ΔΔCT ([3]; RGS2 mRNA) was −0.162. It also gave a ΔΔCT ([3]; SESN1 mRNA) of −1.697, a ΔΔCT ([3]; SGK1 mRNA) of 0.801 and a ΔΔCT ([3]; SLC19A2 mRNA) of −0.797. For the same compound, the ΔΔCT ([3]; SNTA1 mRNA) was 0.040, the ΔΔCT ([3]; SPHK1 mRNA) was −0.781 and the ΔΔCT ([3]; SPSB1 mRNA) was −0.865. For the same compound, the ΔΔCT ([3]; STAT5A mRNA) was 0.001, the ΔΔCT ([3]; STAT5B mRNA) was −0.094 and the ΔΔCT ([3]; TNF mRNA) was −0.837. For the same compound, the ΔΔCT ([3]; TNFAIP3 mRNA) was 0.886, the ΔΔCT ([3]; USP2 mRNA) was −0.139 and the ΔΔCT ([3]; USPS4 mRNA) was −0.961. For the same compound, the ΔΔCT ([3]; VDR mRNA) was −2.658, the ΔΔCT ([3]; ZHX3 mRNA) was 4.661 and the ΔΔCT ([3]; ZNF281 mRNA) was 0.046. The “ΔΔCT MERTK” value [4] was 1.977, the “ΔΔCT, ADARB1” value [4] was −1.229 and the “ΔΔCT, AFF1” value [4] was −0.276. The “ΔΔCT, AMPD3” value [4] was −1.449, the “ΔΔCT, ANGPTL4” value [4] was −1.331 and the “ΔΔCT, ANXA4” value [4] was −2.419. For the same compound, the “ΔΔCT, AQP1” value [4] was 0.331, the “ΔΔCT, ARID68” value [4] was −0.541 and the “ΔΔCT, ASPH” value [4] was −0.843. The “ΔΔCT, ATF4” value [4] was 0.146, the “ΔΔCT, CEBPA” value [4] was −2.510 and the “ΔΔCT, CREB1” value [4] was −0.313. For the same compound, the “ΔΔCT, CREB3” value [4] was −0.490, the “ΔΔCT, CREB3L4” value [4] was −0.655 and the “ΔΔCT, CYB561” value [4] was −4.236. For the same compound, the “ΔΔCT, EHD3” value [4] was −1.998, the “ΔΔCT, FK8PS” value [4] was 0.008 and the “ΔΔCT, GDPD1” value [4] was −1.356. The “ΔΔCT, GOT1” value [4] was 0.065, the “ΔΔCT, H6PD” value [4] was −0.549 and the “ΔΔCT, HNRPLL” value [4] was −0.471. The “ΔΔCT, IL6R” value [4] was −1.903, the “ΔΔCT, IL10” value [4] was −1.895 and the “ΔΔCT, KLF9” value [4] was −1.293. For the same compound, the “ΔΔCT, KLF13” value [4] was −0.534, the “ΔΔCT, MT2A” value [4] was −0.309 and the “ΔΔCT, NR3C1” value [4] was −0.234. For the same compound, the “ΔΔCT, PDCD7” value [4] was −0.127, the “ΔΔCT, PER1” value [4] was −0.524 and the “ΔΔCT, PER2” value [4] was −0.854. For the same compound, the “ΔΔCT, PIK3R1” value [4] was −0.502, the “ΔΔCT, PLEKHF1” value [4] was −1.254 and the “ΔΔCT, POU2F1” value [4] was −0.575. For the same compound, the “ΔΔCT, RGS2” value [4] was −0.632, the “ΔΔCT, RHOB” value [4] was −1.561 and the “ΔΔCT, SESN1” value [4] was −2.258. The “ΔΔCT, SLC10A6” value [4] was −4.180, the “ΔΔCT, SLC19A2” value [4] was −1.612 and the “ΔΔCT, SLC22A5” value [4] was −0.775. For the same compound, the “ΔΔCT, SNTA1” value [4] was −0.847, the “ΔΔCT, SPSB1” value [4] was −0.624 and the “ΔΔCT, STAT5B” value [4] was −0.298. For the same compound, the “ΔΔCT, TBL1XR1” value [4] was −0.456, the “ΔΔCT, TNFAIP3” value [4] was 0.339 and the “ΔΔCT, TSC22D3” value [4] was −0.002. For the same compound, the “ΔΔCT, USP2” value [4] was −0.688, the “ΔΔCT, USPS4” value [4] was 6.193 and the “ΔΔCT, ZFP36” value [4] was −0.262. The “ΔΔCT, ZHX3” value [4] was −1.047.
